Among the data in patent publication US20260193293A1, “PEPTIDES CAPABLE OF INHIBITING PROTEIN-PROTEIN INTERACTIONS AT GABAB1A SUBUNIT AND USES THEREOF” (UNIVERSITY OF COPENHAGEN, priority 2022, published 2026) are Ki values, retold here.

Residues, ends and D or L forms follow the SMILES beside them.

One test concerns the target Sushi domains (SD1/2) protein. Put plainly: Fluorescence polarization (FP) competition assay with AJAP-1probe, calculated Ki. Type of test: binding. The settings on record: Table 3, SPOT hit validation and previously reported peptides; read-out: Ki (nM) mean ± SEM. In short, it runs like this:
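Ki values were derived from IC50s (sigmoidal fits, ≥ triplicate), with probe Kd obtained by saturation titration of SD1/2. Peptides displaced a 25 nM TAMRA-labelled probe; polarization read at 530/580 nm in 1% BSA-containing PBS, pH 7.4, room temperature.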
As for `CC[C@H](C)[C@H](NC(=O)[C@H](Cc1ccccc1)NC(=O)[C@H](CCC(=O)O)NC(=O)[C@@H](NC(=O)[C@H](CCC(=O)O)NC(=O)[C@@H](NC(=O)[C@@H](NC(C)=O)[C@@H](C)O)[C@@H](C)O)[C@@H](C)O)C(=O)N[C@@H](C)C(=O)N[C@@H](Cc1c[nH]c2ccccc12)C(=O)NCC(=O)N1CCC[C@H]1C(=O)N[C@H](C(=O)NCC(=O)N[C@@H](CC(=O)O)C(=O)N[C@@H](CCC(=O)O)C(N)=O)[C@@H](C)O` (Ac-TTETEFIAWGPTGDE-NH2), the Ki is 73 ± 1 nM.

The test is the same for the next values; noted with them: Table 4, truncation and elongation scans of APP epitope; read-out: Ki (nM) mean ± SEM.
Regarding `CC(=O)N[C@@H](CO)C(=O)N[C@@H](C)C(=O)N[C@@H](CC(=O)O)C(=O)N[C@@H](C)C(=O)N[C@@H](CCC(=O)O)C(=O)N[C@@H](CCC(=O)O)C(=O)N[C@@H](CC(=O)O)C(=O)N[C@@H](CC(=O)O)C(=O)N[C@@H](CO)C(=O)N[C@@H](CC(=O)O)C(=O)N[C@H](C(=O)N[C@@H](Cc1c[nH]c2ccccc12)C(=O)N[C@@H](Cc1c[nH]c2ccccc12)C(=O)NCC(=O)NCC(=O)N[C@@H](C)C(=O)N[C@@H](CC(=O)O)C(=O)N[C@H](C(=O)N[C@@H](CC(=O)O)C(=O)N[C@@H](Cc1ccc(O)cc1)C(=O)N[C@@H](C)C(=O)N[C@@H](CC(=O)O)C(N)=O)[C@@H](C)O)C(C)C` (Ac-SADAEEDDSDVWWGGADTDYAD-NH2), the Ki was 284 ± 5 nM.

On to `CC(=O)N[C@@H](CO)C(=O)N[C@@H](CC(=O)O)C(=O)N[C@H](C(=O)N[C@@H](Cc1c[nH]c2ccccc12)C(=O)N[C@@H](Cc1c[nH]c2ccccc12)C(=O)NCC(=O)NCC(=O)N[C@@H](C)C(=O)N[C@@H](CC(=O)O)C(=O)N[C@H](C(=O)N[C@@H](CC(=O)O)C(=O)N[C@@H](Cc1ccc(O)cc1)C(=O)N[C@@H](C)C(=O)N[C@@H](CC(=O)O)C(N)=O)[C@@H](C)O)C(C)C` (Ac-SDVWWGGADTDYAD-NH2), for which the Ki was 2950 ± 82 nM. For `CC(=O)N[C@H](C(=O)N[C@@H](Cc1c[nH]c2ccccc12)C(=O)N[C@@H](Cc1c[nH]c2ccccc12)C(=O)NCC(=O)NCC(=O)N[C@@H](C)C(=O)N[C@@H](CC(=O)O)C(=O)N[C@H](C(=O)N[C@@H](CC(=O)O)C(=O)N[C@@H](Cc1ccc(O)cc1)C(=O)N[C@@H](C)C(=O)N[C@@H](CC(=O)O)C(N)=O)[C@@H](C)O)C(C)C` (Ac-VWWGGADTDYAD-NH2), the Ki was 60800 ± 5220 nM.

Still in this test, the particulars now being: Table 5, elongation and truncation scan of AJAP-1 binding epitope; read-out: Ki (nM) mean ± SEM.
Take `CC[C@H](C)[C@H](NC(=O)[C@H](Cc1ccccc1)NC(=O)[C@H](CCC(=O)O)NC(=O)[C@@H](NC(=O)[C@H](CCC(=O)O)NC(=O)[C@@H](NC(C)=O)[C@@H](C)O)[C@@H](C)O)C(=O)N[C@@H](C)C(=O)N[C@@H](Cc1c[nH]c2ccccc12)C(N)=O` (Ac-TETEFIAW-NH2): the Ki is 1010 ± 67 nM. The same measure, in the same setting: under `CC[C@H](C)[C@H](NC(=O)[C@H](Cc1ccccc1)NC(=O)[C@H](CCC(=O)O)NC(=O)[C@@H](NC(=O)[C@H](CCC(=O)O)NC(=O)[C@@H](NC(C)=O)[C@@H](C)O)[C@@H](C)O)C(=O)N[C@@H](C)C(=O)N[C@@H](Cc1c[nH]c2ccccc12)C(=O)NCC(N)=O` (Ac-TETEFIAWG-NH2) stands 2470 ± 170 nM; under `CC[C@H](C)[C@H](NC(=O)[C@H](Cc1ccccc1)NC(=O)[C@H](CCC(=O)O)NC(=O)[C@@H](NC(=O)[C@H](CCC(=O)O)NC(=O)[C@@H](NC(C)=O)[C@@H](C)O)[C@@H](C)O)C(=O)N[C@@H](C)C(=O)N[C@@H](Cc1c[nH]c2ccccc12)C(=O)NCC(=O)N1CCC[C@H]1C(N)=O` (Ac-TETEFIAWGP-NH2), 574 ± 7 nM; under `CC[C@H](C)[C@H](NC(=O)[C@H](Cc1ccccc1)NC(=O)[C@H](CCC(=O)O)NC(=O)[C@@H](NC(=O)[C@H](CCC(=O)O)NC(=O)[C@@H](NC(C)=O)[C@@H](C)O)[C@@H](C)O)C(=O)N[C@@H](C)C(=O)N[C@@H](Cc1c[nH]c2ccccc12)C(=O)NCC(=O)N1CCC[C@H]1C(=O)N[C@H](C(N)=O)[C@@H](C)O` (Ac-TETEFIAWGPT-NH2), 236 ± 9 nM. On the same count and under the same terms, under `CC[C@H](C)[C@H](NC(=O)[C@H](Cc1ccccc1)NC(=O)[C@H](CCC(=O)O)NC(=O)[C@@H](NC(=O)[C@H](CCC(=O)O)NC(=O)[C@@H](NC(C)=O)[C@@H](C)O)[C@@H](C)O)C(=O)N[C@@H](C)C(=O)N[C@@H](Cc1c[nH]c2ccccc12)C(=O)NCC(=O)N1CCC[C@H]1C(=O)N[C@H](C(=O)NCC(N)=O)[C@@H](C)O` (Ac-TETEFIAWGPTG-NH2) stands 248 ± 7 nM; under `CC[C@H](C)[C@H](NC(=O)[C@H](Cc1ccccc1)NC(=O)[C@H](CCC(=O)O)NC(=O)[C@@H](NC(=O)[C@H](CCC(=O)O)NC(=O)[C@@H](NC(C)=O)[C@@H](C)O)[C@@H](C)O)C(=O)N[C@@H](C)C(=O)N[C@@H](Cc1c[nH]c2ccccc12)C(=O)NCC(=O)N1CCC[C@H]1C(=O)N[C@H](C(=O)NCC(=O)N[C@@H](CC(=O)O)C(N)=O)[C@@H](C)O` (Ac-TETEFIAWGPTGD-NH2), 97 ± 7 nM. Regarding `CC[C@H](C)[C@H](NC(=O)[C@H](Cc1ccccc1)NC(=O)[C@H](CCC(=O)O)NC(=O)[C@@H](NC(=O)[C@H](CCC(=O)O)NC(=O)[C@@H](NC(C)=O)[C@@H](C)O)[C@@H](C)O)C(=O)N[C@@H](C)C(=O)N[C@@H](Cc1c[nH]c2ccccc12)C(=O)NCC(=O)N1CCC[C@H]1C(=O)N[C@H](C(=O)NCC(=O)N[C@@H](CC(=O)O)C(=O)N[C@@H](CCC(=O)O)C(N)=O)[C@@H](C)O` (Ac-TETEFIAWGPTGDE-NH2), the Ki is 69 ± 1 nM. On the same count and under the same terms, under `CC[C@H](C)[C@H](NC(=O)[C@H](Cc1ccccc1)NC(=O)[C@H](CCC(=O)O)NC(=O)[C@@H](NC(=O)[C@H](CCC(=O)O)NC(=O)[C@@H](NC(C)=O)[C@@H](C)O)[C@@H](C)O)C(=O)N[C@@H](C)C(=O)N[C@@H](Cc1c[nH]c2ccccc12)C(=O)NCC(=O)N1CCC[C@H]1C(=O)N[C@H](C(=O)NCC(=O)N[C@@H](CC(=O)O)C(=O)N[C@@H](CCC(=O)O)C(=O)N[C@@H](CC(=O)O)C(=O)N[C@@H](C)C(N)=O)[C@@H](C)O` (Ac-TETEFIAWGPTGDEDA-NH2) stands 36 ± 1.7 nM.

As to `CC[C@H](C)[C@H](NC(=O)[C@H](Cc1ccccc1)NC(=O)[C@H](CCC(=O)O)NC(=O)[C@@H](NC(=O)[C@H](CCC(=O)O)NC(=O)[C@@H](NC(C)=O)[C@@H](C)O)[C@@H](C)O)C(=O)N[C@@H](C)C(=O)N[C@@H](Cc1c[nH]c2ccccc12)C(=O)NCC(=O)N1CCC[C@H]1C(=O)N[C@H](C(=O)NCC(=O)N[C@@H](CC(=O)O)C(=O)N[C@@H](CCC(=O)O)C(=O)N[C@@H](CC(=O)O)C(=O)N[C@@H](C)C(=O)N[C@@H](CC(C)C)C(N)=O)[C@@H](C)O` (Ac-TETEFIAWGPTGDEDAL-NH2), the Ki was 47 ± 2 nM. Turning to `CC[C@H](C)[C@H](NC(=O)[C@H](Cc1ccccc1)NC(=O)[C@H](CCC(=O)O)NC(=O)[C@@H](NC(=O)[C@H](CCC(=O)O)NC(=O)[C@@H](NC(=O)[C@@H](NC(C)=O)[C@@H](C)O)[C@@H](C)O)[C@@H](C)O)C(=O)N[C@@H](C)C(=O)N[C@@H](Cc1c[nH]c2ccccc12)C(=O)NCC(=O)N1CCC[C@H]1C(=O)N[C@H](C(=O)NCC(=O)N[C@@H](CC(=O)O)C(=O)N[C@@H](CCC(=O)O)C(=O)N[C@@H](CC(=O)O)C(N)=O)[C@@H](C)O` (Ac-TTETEFIAWGPTGDED-NH2), the Ki was 32 ± 1.4 nM.

The test is the same for the next values; noted with them: Table 6, elongation and truncation scan of PIANP binding epitope; read-out: Ki (nM) mean ± SEM.
Turning to `CC[C@H](C)[C@H](NC(=O)[C@H](C)NC(=O)[C@H](Cc1c[nH]c2ccccc12)NC(=O)[C@@H]1CCCN1C(=O)[C@H](Cc1ccc(O)cc1)NC(=O)[C@H](CCC(N)=O)NC(=O)[C@H](CO)NC(C)=O)C(=O)N[C@H](C(=O)N[C@@H](Cc1c[nH]c2ccccc12)C(=O)NCC(=O)N1CCC[C@H]1C(=O)N[C@H](C(=O)N[C@H](C(=O)N[C@@H](CO)C(=O)N[C@@H](CCCNC(=N)N)C(=O)N[C@@H](CCC(=O)O)C(=O)N[C@@H](CC(=O)O)C(=O)NCC(N)=O)C(C)C)[C@@H](C)O)C(C)C` (Ac-SQYPWAIVWGPTVSREDG-NH2), the Ki was 762 ± 13 nM. On to `CC[C@H](C)[C@H](NC(=O)[C@H](C)NC(=O)[C@H](Cc1c[nH]c2ccccc12)NC(=O)[C@@H]1CCCN1C(=O)[C@H](Cc1ccc(O)cc1)NC(=O)[C@H](CCC(N)=O)NC(=O)[C@H](CO)NC(=O)[C@H](CO)NC(C)=O)C(=O)N[C@H](C(=O)N[C@@H](Cc1c[nH]c2ccccc12)C(=O)NCC(=O)N1CCC[C@H]1C(=O)N[C@H](C(=O)N[C@H](C(=O)N[C@@H](CO)C(=O)N[C@@H](CCCNC(=N)N)C(=O)N[C@@H](CCC(=O)O)C(=O)N[C@@H](CC(=O)O)C(=O)NCC(N)=O)C(C)C)[C@@H](C)O)C(C)C` (Ac-SSQYPWAIVWGPTVSREDG-NH2), for which the Ki is 29900 ± 2000 nM. With `CC(=O)N[C@H](C(=O)N[C@@H](Cc1c[nH]c2ccccc12)C(=O)NCC(=O)N1CCC[C@H]1C(=O)N[C@H](C(=O)N[C@H](C(=O)N[C@@H](CO)C(=O)N[C@@H](CCCNC(=N)N)C(=O)N[C@@H](CCC(=O)O)C(=O)N[C@@H](CC(=O)O)C(=O)NCC(N)=O)C(C)C)[C@@H](C)O)C(C)C` (Ac-VWGPTVSREDG-NH2), the Ki is 1740 ± 62 nM. On the same count and under the same terms, then `CC[C@H](C)[C@H](NC(=O)[C@H](C)NC(=O)[C@H](Cc1c[nH]c2ccccc12)NC(C)=O)C(=O)N[C@H](C(=O)N[C@@H](Cc1c[nH]c2ccccc12)C(=O)NCC(=O)N1CCC[C@H]1C(=O)N[C@H](C(=O)N[C@H](C(=O)N[C@@H](CO)C(=O)N[C@@H](CCCNC(=N)N)C(=O)N[C@@H](CCC(=O)O)C(=O)N[C@@H](CC(=O)O)C(=O)NCC(N)=O)C(C)C)[C@@H](C)O)C(C)C` (Ac-WAIVWGPTVSREDG-NH2), with more than 62500 nM.

Staying with this test, now noted: Table 14, CPPs tagged peptides; read-out: Ki (nM) mean ± SEM.
For the molecule `CC[C@H](C)[C@H](NC(=O)[C@H](Cc1c[nH]c2ccccc12)NC(=O)[C@H](CC(=O)O)NC(=O)[C@H](CC(=O)O)NC(=O)[C@H](CC(=O)O)NC(=O)[C@H](CCC(=O)O)NC(=O)[C@H](CCCNC(=N)N)NC(=O)[C@H](CCCNC(=N)N)NC(=O)[C@H](CCCNC(=N)N)NC(=O)[C@H](CCCNC(=N)N)NC(=O)[C@H](CCCNC(=N)N)NC(=O)[C@H](CCCNC(=N)N)NC(=O)[C@H](CCCNC(=N)N)NC(C)=O)C(=O)N[C@@H](CC(=O)O)C(=O)N[C@@H](Cc1c[nH]c2ccccc12)C(=O)N[C@@H](Cc1ccc(O)cc1)C(=O)N[C@@H](CC(=O)O)C(=O)N[C@@H](CO)C(=O)N[C@@H](CC(=O)O)C(=O)N[C@@H](CC(=O)O)C(=O)N[C@@H](CC(=O)O)C(N)=O` (Ac-RRRRRRREDDDWIDWYDSDDD-NH2), the Ki is 89.1 ± 3 nM.
